According to PubChem BioAssay (NCI):
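Tested at 5 concentrations; 48 h exposure; 96-well plates; endpoints linearly interpolated, else capped at highest concentration. The concentration for full growth arrest is given as TGI.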

Assays:
Assay in all cases: NCI anticancer screen, dose series, 48 h
786-0 renal = tested on: 786-0 renal
A498 renal = tested on: A498 renal
A549 NSCLC = tested on: A549 NSCLC
ACHN renal = tested on: ACHN renal
CAKI-1 renal = tested on: CAKI-1 renal
CCRF-CEM leukemia = tested on: CCRF-CEM leukemia
COLO 205 colon = tested on: COLO 205 colon
DLD-1 colon = tested on: DLD-1 colon
DMS 114 small cell lung = tested on: DMS 114 small cell lung
DMS 273 small cell lung = tested on: DMS 273 small cell lung
EKVX NSCLC = tested on: EKVX NSCLC
HCC-2998 colon = tested on: HCC-2998 colon
HCT-116 colon = tested on: HCT-116 colon
HCT-15 colon = tested on: HCT-15 colon
HL-60(TB) leukemia = tested on: HL-60(TB) leukemia
HOP-18 NSCLC = tested on: HOP-18 NSCLC
HOP-62 NSCLC = tested on: HOP-62 NSCLC
HOP-92 NSCLC = tested on: HOP-92 NSCLC
HT29 colon = tested on: HT29 colon
IGROV1 ovarian = tested on: IGROV1 ovarian
K-562 leukemia = tested on: K-562 leukemia
KM12 colon = tested on: KM12 colon
KM20L2 colon = tested on: KM20L2 colon
LXFL 529 NSCLC = tested on: LXFL 529 NSCLC
M14 melanoma = tested on: M14 melanoma
M19-MEL melanoma = tested on: M19-MEL melanoma
MALME-3M melanoma = tested on: MALME-3M melanoma
MOLT-4 leukemia = tested on: MOLT-4 leukemia
NCI-H226 lung = tested on: NCI-H226 lung
NCI-H23 lung = tested on: NCI-H23 lung
NCI-H460 lung = tested on: NCI-H460 lung
NCI-H522 lung = tested on: NCI-H522 lung
OVCAR-3 ovarian = tested on: OVCAR-3 ovarian
OVCAR-4 ovarian = tested on: OVCAR-4 ovarian
OVCAR-5 ovarian = tested on: OVCAR-5 ovarian
OVCAR-8 ovarian = tested on: OVCAR-8 ovarian
RPMI-8226 leukemia = tested on: RPMI-8226 leukemia
RXF 393 renal = tested on: RXF 393 renal
SF-268 CNS = tested on: SF-268 CNS
SF-295 CNS = tested on: SF-295 CNS
SF-539 CNS = tested on: SF-539 CNS
SK-MEL-2 melanoma = tested on: SK-MEL-2 melanoma
SK-MEL-28 melanoma = tested on: SK-MEL-28 melanoma
SK-MEL-5 melanoma = tested on: SK-MEL-5 melanoma
SK-OV-3 ovarian = tested on: SK-OV-3 ovarian
SN12C renal = tested on: SN12C renal
SNB-19 CNS = tested on: SNB-19 CNS
SNB-75 CNS = tested on: SNB-75 CNS
SNB-78 CNS = tested on: SNB-78 CNS
SR leukemia = tested on: SR leukemia
SW-620 colon = tested on: SW-620 colon
TK-10 renal = tested on: TK-10 renal
U251 CNS = tested on: U251 CNS
UACC-257 melanoma = tested on: UACC-257 melanoma
UACC-62 melanoma = tested on: UACC-62 melanoma
UO-31 renal = tested on: UO-31 renal
XF 498 CNS = tested on: XF 498 CNS
LOX IMVI melanoma = tested on: LOX IMVI melanoma

Measured: TGI

Cc1cccc(C)c1NC(=O)CCC(=O)CC(=O)C(C)C
not listed: LOX IMVI melanoma
> 100 µM: all other assays above

Cc1cccc(C)c1NC(=O)C(=O)C(C#N)c1ccccc1Cl (centres undefined)
not listed: LOX IMVI melanoma
> 100 µM: all other assays above

O=C1OC2C(O)COC2(O)C1(O)Cc1c[nH]c2ccccc12 (centres undefined)
not listed: ACHN renal | HCC-2998 colon | SK-MEL-28 melanoma
> 100 µM: all other assays above
